Data on 11 compounds can be found in patent US20250100973A1, “DIIMIDE DERIVATIVE, AND PREPARATION METHOD THEREFOR AND USE THEREOF” (XIANGBEI WELMAN PHARMACEUTICAL CO., LTD., priority 2022, published 2025).

Test [1] relates to A549 human lung cancer cells. Kind of test: In vitro antiproliferative activity (resazurin, 96 h). The test is classed as cell-based. As to conditions: read-out: IC50 grade of inhibitory effect on tumor cells, A549. Here is the method:
(§1) Objective: to test the antiproliferative activity of the compound in the present disclosure against a variety of tumor cells. […] Amonafide and lomustine were commercially available. Test cells: human colon cancer cells (HT-29, COLO 205), human lung cancer cells (NCI-H460, A549), and human leukemia cells (HL-60, U-937). Test methods: each tumor cell was processed separately. Cells were cultured in a culture medium at 37° C. for 24 h for later use. The cells in the exponential growth phase were harvested, treated with trypsin to prepare a cell suspension, the cell suspension was centrifuged, and then the cell pellet was resuspended in a small amount of fresh culture medium as a stock cell solution. A 96-well plate was taken, and blank control groups, cell control groups and compound treatment groups were set up. […] The remaining wells were filled with 200 μL of 10% PBS. The plate was placed in an incubator overnight. 100 μL of each test compound at different dilution concentrations was added into each well of the compound treatment groups, 10 and the dilution concentrations of the compound were as shown in Table 2. […] After adding the drug, the plate was placed in an incubator to be cultured for 96 hours, 22 μL of resazurin sodium solution (Alarm blue, SIGMA R7017) was added into each well, and the plate was returned to the incubator to be cultured for another 4 h. The plate was shaken for 10 s after being taken out. A fluorescence value of each well was tested at 530/590 nm. The above operations were repeated for three times. The IC50 value of each test compound was calculated with the Prism7 software. The IC50 was divided into different grades according to value, that is: […]
On the technique in general: The colour change of resazurin is a common sign of viable cells or microbes.

The test system of test [2] is COLO 205 human colon cancer cells. Described as above. Conditions: read-out: IC50 grade of inhibitory effect on tumor cells, COLO 205. The test is classed as cell-based. Here is the method:
as §1

Test [3] concerns HL-60 human leukemia cells. Described as above. The test is classed as cell-based. As to conditions: read-out: IC50 grade of inhibitory effect on tumor cells, HL-60. The procedure:
as §1

Test [4] concerns HT-29 human colon cancer cells. The description is as above. The test is classed as cell-based. Conditions: read-out: IC50 grade of inhibitory effect on tumor cells, HT-29. The procedure:
as §1

For test [5], the system named is NCI-H460 human lung cancer cells. The test is described as above. Type of test: cell-based. As to conditions: read-out: IC50 grade of inhibitory effect on tumor cells, NCI-H460. The procedure: as §1
Test [6] concerns U-937 human leukemia cells. The description is as above. Conditions: read-out: IC50 grade of inhibitory effect on tumor cells, U-937. Type of test: cell-based. Here is the method: as §1
In test [7] the test system is COLO 205 transplanted tumor. Put plainly: In vivo antitumor effect in COLO 205 transplanted tumor model. Also noted: species or system BALB/c nude mice. As to conditions: nude mice, COLO 205 xenograft, intragastric 10 mg/kg once a day, 21 times, last day. The procedure: Objective: to further test the in vivo antitumor effects of compounds of the present disclosure
Test compounds: I-01, I-08.
Test animals: 5-week-old female BALB/c nude mice were fed normally for 7 days, and mice with good physical conditions were selected for experiments.
Tumor cells: human colon cancer cells COLO 205 were subjected to cell culture in a RPMI-1640 medium containing 10% fetal bovine serum. The passaging was carried out for 1-2 times a week, with a passaging ratio of 1:3 to 1:6.
Modeling and grouping: COLO 205 cells in a logarithmic growth phase were harvested and injected into the anterior right mammary fat pad of nude mice with an injection volume of 5×10^6 cells per animal to establish a COLO 205 transplanted tumor model. The animal status was observed regularly, tumor diameter was measured, and tumor volume was calculated. After the tumor volume reached approximately 150 mm^3, tumor-bearing mice in good health and with similar tumor volumes were selected and randomly divided into a solvent control group, an I-01 group, and an I-08 group.
Administration: each test compound was dissolved in solvent, and each animal group was treated with corresponding compounds or blank solvent, respectively. The administration method was intragastric administration, with a dosage of 10 mg/kg, once a day, and a total of 21 times.
Result: on the last day of the experiment, tumor diameter and tumor weight were measured, tumor growth inhibition rate (GI) and tumor weight inhibition rate (IR) were calculated.
Tumor growth inhibition rate=100%×[1−(Tvt−Tvini)÷(Cvt−Cvini)], where Tvt represents tumor volume of the treatment group at the end of the experiment, Tvini represents initial tumor volume of the treatment group, Cvt represents tumor volume of the solvent control group at the end of the experiment, and Cvini represents initial tumor volume of the solvent control group.
Tumor weight inhibition rate=100%×(Cw−Tw)÷Cw, where Cw represents tumor weight of the solvent control group at the end of the experiment, and Tw represents tumor weight of the treatment group at the end of the experiment.

The mark [8] stands for this setting: Homo sapiens, A549, 96 h culture, resazurin fluorescence.
Where [9] appears, read: Homo sapiens, COLO 205, 96 h culture, resazurin fluorescence.
Where [10] appears, read: Homo sapiens, HL-60, 96 h culture, resazurin fluorescence.
The mark [11] stands for this setting: Homo sapiens, HT-29, 96 h culture, resazurin fluorescence.
[12] abbreviates: Homo sapiens, NCI-H460, 96 h culture, resazurin fluorescence.
[13] abbreviates: Homo sapiens, U-937, 96 h culture, resazurin fluorescence.
The mark [14] stands for this setting: A549, 96 h culture, resazurin fluorescence.
Where [15] appears, read: COLO 205, 96 h culture, resazurin fluorescence.
The mark [16] stands for this setting: HL-60, 96 h culture, resazurin fluorescence.
Where [17] appears, read: HT-29, 96 h culture, resazurin fluorescence.
Where [18] appears, read: NCI-H460, 96 h culture, resazurin fluorescence.
Setting [19] is: U-937, 96 h culture, resazurin fluorescence.

Like-named read-outs stand apart in the source and are kept apart here. Where only a bound is given, the exact number is not on record here.

With `CCN(CC)C(=O)N(C)CCNCN1C(=O)c2cccc3c(OC)ccc(c23)C1=O` [Compound I-06], the IC50 (as a rule, the concentration that gives 50% inhibition) in test [1] (setting [8]) is 1 to 5 µM; in test [2] (setting [9]), 5 to 10 µM; in test [3] (setting [10]), 1 to 5 µM; in test [4] (setting [11]), 1 to 5 µM; in test [5] (setting [12]) it was 5 to 10 µM; in test [6] (setting [13]) it was 1 to 5 µM.
As to `CN(C)CCN1C(=O)c2cccc3cc(N)cc(c23)C1=O` [Amonafide], the IC50 lay within 1 to 5 µM in test [1] (setting [8]); 5 to 10 µM in test [2] (setting [9]); 5 to 10 µM in test [3] (setting [10]); 11 to 20 µM in test [4] (setting [11]); 11 to 20 µM in test [5] (setting [12]); 11 to 20 µM in test [6] (setting [13]).
`CN(CCNC(=O)N(CCCl)N=O)CCN1C(=O)c2cccc3cc([N+](=O)[O-])cc(c23)C1=O` [Compound I-01]: the IC50 in test [1] (setting [14]) is 0.5 to 1 µM; in test [2] (setting [15]) it was < 0.5 µM; in test [3] (setting [16]), < 0.5 µM; in test [4] (setting [17]), < 0.5 µM; in test [5] (setting [18]) it was < 0.5 µM; in test [6] (setting [19]), < 0.5 µM. The “Tumor growth inhibition rate (%)” value in test [7] is given as 75.3%. For the same compound, in test [7], the “Tumor weight inhibition rate (%)” value is 69.3%.
Regarding `CN(C)C(=O)N(C)CCCNCN1C(=O)c2cccc3cccc(c23)C1=O` [Compound I-07], the IC50 in test [1] (setting [8]) lay within 5 to 10 µM; in test [2] (setting [9]) it was 1 to 5 µM; in test [3] (setting [10]), 1 to 5 µM; in test [4] (setting [11]) it was 5 to 10 µM; in test [5] (setting [12]), 1 to 5 µM; in test [6] (setting [13]), 5 to 10 µM.
As to `O=NN(CCCl)C(=O)NC1CCCCC1` [Lomustine], the 50% inhibitory concentration (IC50) in test [1] (setting [8]) was > 100 µM; in test [2] (setting [9]), > 100 µM; in test [3] (setting [10]), 21 to 50 µM; in test [4] (setting [11]), 51 to 100 µM; in test [5] (setting [12]) it was 51 to 100 µM; in test [6] (setting [13]), 11 to 20 µM.
On to `CCN(CCNC(=O)N(C)CC)CCN1C(=O)c2cccc3cc([N+](=O)[O-])cc(c23)C1=O` [Compound I-04], for which the IC50 in test [1] (setting [8]) lay within 1 to 5 µM; in test [2] (setting [9]) it was 5 to 10 µM; in test [3] (setting [10]), 1 to 5 µM; in test [4] (setting [11]), 1 to 5 µM; in test [5] (setting [12]), 1 to 5 µM; in test [6] (setting [13]) it was 1 to 5 µM.
For `O=NN(CCCl)C(=O)NCCN1C(=O)c2cccc3cc([N+](=O)[O-])cc(c23)C1=O` [Compound 1], the IC50 in test [1] (Homo sapiens, A549, 96 h) lay within 5 to 10 µM; in test [2] (Homo sapiens, COLO 205, 96 h) it was 21 to 50 µM; in test [3] (Homo sapiens, HL-60, 96 h), 11 to 20 µM; in test [4] (Homo sapiens, HT-29, 96 h), 21 to 50 µM; in test [5] (Homo sapiens, NCI-H460, 96 h), 11 to 20 µM; in test [6] (Homo sapiens, U-937, 96 h), 21 to 50 µM.
Take `O=NN(CCCl)C(=O)N1CCN(CCN2C(=O)c3cccc4cc([N+](=O)[O-])cc(c34)C2=O)CC1` [Compound I-08]: the IC50 fell in the range of 0.5 to 1 µM in test [1] (setting [14]); 0.5 to 1 µM in test [2] (setting [15]); 1 to 5 µM in test [3] (setting [16]); 1 to 5 µM in test [4] (setting [17]); 1 to 5 µM in test [5] (setting [18]); 0.5 to 1 µM in test [6] (setting [19]). The “Tumor growth inhibition rate (%)” value in test [7] is listed as 43.5%. For the same compound, the “Tumor weight inhibition rate (%)” value in test [7] was found to be 31.2%.
Consider `O=NN(CCCl)C(=O)NCCCCN1C(=O)c2cccc3cccc(c23)C1=O` [Compound 1d], for which the IC50 was 21 to 50 µM in test [1] (Homo sapiens, A549, 96 h); 21 to 50 µM in test [2] (Homo sapiens, COLO 205, 96 h); 21 to 50 µM in test [3] (Homo sapiens, HL-60, 96 h); 21 to 50 µM in test [4] (Homo sapiens, HT-29, 96 h); 51 to 100 µM in test [5] (Homo sapiens, NCI-H460, 96 h); 11 to 20 µM in test [6] (Homo sapiens, U-937, 96 h).
Take `CC(C)(C)OC(=O)NCCCN1CCN(CCCN2C(=O)c3cccc4cc([N+](=O)[O-])cc(c34)C2=O)CC1` [Cob280]: the IC50 in test [1] (setting [8]) lay within 11 to 20 µM; in test [2] (setting [9]), 11 to 20 µM; in test [3] (setting [10]), 5 to 10 µM; in test [4] (setting [11]) it was 5 to 10 µM; in test [5] (setting [12]), 11 to 20 µM; in test [6] (setting [13]), 5 to 10 µM.
In the case of `CC(C)(C)OC(=O)NCCCNCCCN1C(=O)c2cccc3cc([N+](=O)[O-])cc(c23)C1=O` [Cob281], the IC50 in test [1] (setting [8]) was 5 to 10 µM; in test [2] (setting [9]), 11 to 20 µM; in test [3] (setting [10]), 5 to 10 µM; in test [4] (setting [11]), 5 to 10 µM; in test [5] (setting [12]), 11 to 20 µM; in test [6] (setting [13]) it was 5 to 10 µM.
